Results on 54 compounds are retold here after ChEMBL document CHEMBL1156829 (Proc Natl Acad Sci U S A, 2008).

Series [1] concerns Plasmodium falciparum. Put plainly: NOVARTIS: Inhibition of Plasmodium falciparum W2 (drug-resistant) proliferation in erythrocyte-based infection assay. In kind it is functional, organism-based. Conditions: Plasmodium falciparum, W2; read-out: EC50.
Series [2] deals with Plasmodium falciparum. Put plainly: NOVARTIS: Inhibition of Plasmodium falciparum 3D7 (drug-susceptible) proliferation in erythrocyte-based infection assay. Conditions: Plasmodium falciparum, 3D7. In kind it is functional, organism-based.
Series [3] is described as follows: NOVARTIS: Cytotoxicity against human hepatocellular carcinoma cell line (Huh7). The note with it: Huh7 cells (hepatocellular carcinoma cell line). In kind it is toxicity, cell-based, Huh-7.

Bounds are passed on as bounds.

With `CC(=O)Nc1cccc(NC(=O)C(F)(F)F)c1`, the results for the EC50 in the series with Plasmodium falciparum [1] and with Plasmodium falciparum [2] were greater than 1250 nM and 1180 nM, respectively. This compound also gave a CC50 in series [3] greater than 10 µM.
For `CSc1nnc(CN2CCSCC2)n1C`, the EC50 is greater than 1250 nM with Plasmodium falciparum [1] and 2030 nM with Plasmodium falciparum [2]. In series [3], this compound showed a CC50 greater than 10 µM.
For `COc1ccccc1/C=C/CN(CCN1CCN(S(=O)(=O)c2cccc(C(F)(F)F)c2)CC1)C(=O)Cc1ccccc1` the same measures were greater than 1250 nM, 1320 nM and greater than 10 µM.
On the same counts, the results for `Cc1ccccc1N1C(=O)N(c2ccccc2)C2CS(=O)(=O)CC21` (configuration not stated) are greater than 1250 nM, 1920 nM and greater than 10 µM.
In the case of `CCOc1ccccc1NC(=O)C1C(c2ccccc2)=C1c1ccccc1`, the results for the EC50 with Plasmodium falciparum [1] and in the series on Plasmodium falciparum [2] were greater than 1250 nM and 1800 nM, respectively. Moreover, in series [3], the CC50 is greater than 10 µM.
For `C=CCNC(=S)N1CCN(c2ccc([N+](=O)[O-])cc2)CC1` the same measures were greater than 1250 nM, 2370 nM and greater than 10 µM.
For the compound `Cc1cc(N2CCCCC2)nc2ccc(NC(=O)c3cncc(Br)c3)cc12`, the EC50 was greater than 1250 nM with Plasmodium falciparum [1] and 1360 nM in the series with Plasmodium falciparum [2]. In series [3], this compound yielded a CC50 greater than 10 µM.
On the same counts, the results for `c1ccc(Oc2ccc(Nc3nc4nonc4nc3Nc3ccc(Oc4ccccc4)cc3)cc2)cc1` are greater than 1250 nM, 1760 nM and greater than 10 µM.
For `c1cncc(CCNc2nccn3c(-c4cccc5ccccc45)cnc23)c1` the same measures were greater than 1250 nM, 1240 nM and greater than 10 µM.
On the same counts, the results for `CN(C)CCCNc1ncc(C(=O)NCCc2ccccc2)c(NCC2CCCCC2)n1` are greater than 1250 nM, 1240 nM and greater than 10 µM.
As to `O=C1/C(=C/c2ccccc2)Oc2c1ccc(O)c2CN1CCCCC1`, the values for the EC50 in the series with Plasmodium falciparum [1] and with Plasmodium falciparum [2] were 1260 nM and greater than 1250 nM, respectively. For the same compound, the CC50 in series [3] is greater than 10 µM.
On the same counts, the results for `CCCCN1C=CC=C/C1=C\c1sc2ccccc2[n+]1CC` are 226 nM, 120 nM and 1.8 µM.
For `Cc1cc(C)c2nc(NS(=O)(=O)c3cccc(C(=O)O)c3)sc2c1` the same measures were 1250 nM, 693 nM and greater than 10 µM.
For `CCOC(=O)c1sc(=S)n(-c2ccc(N(C)C)cc2)c1N` the same measures were greater than 1270 nM, greater than 1190 nM and greater than 10 µM.
`CC(C(=O)NN=C1CCN(C)CC1)N(c1ccccc1)S(C)(=O)=O` (configuration not stated): the results for the EC50 in the series on Plasmodium falciparum [1] and in the series on Plasmodium falciparum [2] were 1270 nM and greater than 1250 nM, respectively. The compound also showed a CC50 in series [3] greater than 10 µM.
For `Cc1c(C(=O)N2CCN(c3ccc([N+](=O)[O-])cc3)CC2)sc2ncnc(N(C)c3ccccc3)c12`, the EC50 in the series with Plasmodium falciparum [1] is greater than 1250 nM; with Plasmodium falciparum [2], 1650 nM. This compound registered a CC50 in series [3] greater than 10 µM.
On the same counts, the results for `O=C1Cc2c([nH]c3ccc(OCc4ccccc4)cc23)C2CC=CCC12` (configuration not stated) are greater than 1250 nM, 1590 nM and greater than 10 µM.
Regarding `C=CCOC(=O)C1=C(C)N2CCSC2=C(C#N)C1c1ccco1` (configuration not stated), the results for the EC50 with Plasmodium falciparum [1] and in the series on Plasmodium falciparum [2] were greater than 1250 nM and 1210 nM, respectively. Moreover, in series [3], the CC50 was greater than 10 µM.
As to `O=C(Nc1ccc2c3c(cccc13)CC2)c1cccc2ccccc12`, the figures for the EC50 with Plasmodium falciparum [1] and in the series on Plasmodium falciparum [2] were greater than 1250 nM and greater than 1200 nM, respectively. This compound returned a CC50 in series [3] greater than 10 µM.
Regarding `COc1cc(C(=O)/C=C/Nc2ccc(N(C)C)cc2)cc(OC)c1OC`, the values for the 50% effective concentration (EC50) in the series on Plasmodium falciparum [1] and in the series with Plasmodium falciparum [2] were greater than 1250 nM and greater than 1200 nM, respectively. Moreover, the CC50 in series [3] is greater than 10 µM.
On the same counts, the results for `COc1ccc(-n2cc(-c3ccc(C)cc3)nc2SCC(=O)Nc2ccc(C)cc2)cc1` are greater than 1250 nM, 2230 nM and greater than 10 µM.
As for `CCOC(=O)C(=O)N1c2ccc(C)cc2C(C)(c2ccccc2)CC1(C)C` (configuration not stated), the EC50 is greater than 1250 nM in the series on Plasmodium falciparum [1] and 2130 nM in the series on Plasmodium falciparum [2]. This compound also showed a CC50 in series [3] greater than 10 µM.
For `CCOC(=O)c1c(NC(=O)CSc2nc3c(c(=O)n(C)c(=O)n3C)n2C(C)C)sc2c1CCCC2` the same measures were greater than 1250 nM, 1560 nM and greater than 10 µM.
For `CCN1/C(=C/c2cccc[n+]2C)Sc2cc(NC(C)=O)ccc21` the same measures were greater than 1250 nM, 1400 nM and greater than 10 µM.
For `COc1ccc(C2NCCc3c2[nH]c2ccccc32)cc1CSc1nc2ccccc2[nH]1` (configuration not stated) the same measures were 2590 nM, 1750 nM and 20.4 µM.
For `Clc1ccc2[nH]c3c(NCCC4=CCCCC4)ncnc3c2c1`, the results for the EC50 with Plasmodium falciparum [1] and in the series on Plasmodium falciparum [2] were 2000 nM and 988 nM, respectively. The compound further returned a CC50 in series [3] of 15.8 µM.
Take `CCN1/C(=C\C=C\C2=[N+](C)c3ccccc3C2(C)C)N(c2ccccc2)c2ccccc21`: the values for the EC50 with Plasmodium falciparum [1] and with Plasmodium falciparum [2] were 1260 nM and 1400 nM, respectively. Besides, in series [3], the CC50 is greater than 10 µM.
For the compound `CCOc1ccccc1C=NNc1nc(Nc2ccccc2)nc(Nc2ccccc2)n1`, the EC50 was greater than 1250 nM with Plasmodium falciparum [1] and 2050 nM in the series on Plasmodium falciparum [2]. In series [3], this compound showed a CC50 greater than 10 µM.
For `CCOc1ccc(-n2cc(-c3ccccc3)c3c(SCc4cc(C)ccc4C)ncnc32)cc1` the same measures were greater than 1250 nM, 2010 nM and greater than 10 µM.
For `COc1ccc(S(=O)(=O)NCC2CCC(C(=O)NCC(OC)OC)CC2)cc1` (configuration not stated) the same measures were greater than 1250 nM, greater than 1180 nM and greater than 10 µM.
`COc1ccc(CN2CC(=O)N(c3ccc(Cl)cc3)C2=S)cc1OC`: the results for the EC50 in the series on Plasmodium falciparum [1] and in the series with Plasmodium falciparum [2] were greater than 1250 nM and greater than 1180 nM, respectively. Also, the CC50 in series [3] was greater than 10 µM.
For `CN(C)c1ccc(C=NNc2nc(N)nc(N)n2)cc1` the same measures were greater than 1250 nM, 2000 nM and greater than 10 µM.
Consider `O=C(C1CC=CCC1)N1CCCC(c2ncncc2-c2ccncc2)C1` (configuration not stated), for which the figures for the EC50 in the series with Plasmodium falciparum [1] and in the series on Plasmodium falciparum [2] were greater than 1250 nM and 1370 nM, respectively. The compound also came in with a CC50 in series [3] greater than 10 µM.
Turning to `CCC(c1nc2ccccc2c(=O)n1CC)N1CCN(C(=O)Nc2ccccc2C(F)(F)F)CC1` (configuration not stated), the EC50 is greater than 1250 nM with Plasmodium falciparum [1] and 1300 nM in the series on Plasmodium falciparum [2]. This compound had a CC50 in series [3] greater than 10 µM.
On the same counts, the results for `O=C(NC(CN1CCCC1)c1ccccc1)C1CCCCN1S(=O)(=O)c1ccccc1` (configuration not stated) are 1260 nM, 632 nM and greater than 10 µM.
For `N#CC(c1ccc(C(F)(F)F)cc1)c1ccc2c(C(F)(F)F)cc(C(F)(F)F)nc2n1` (configuration not stated) the same measures were 316 nM, 413 nM and 2.51 µM.
With `Oc1ccc(-c2cncc(NCc3ccccc3)n2)cc1`, the EC50 in the series on Plasmodium falciparum [1] was greater than 1250 nM; with Plasmodium falciparum [2], 1750 nM. The CC50 in series [3] is greater than 10 µM.
For `Cc1ccc2nc(-c3ccc(NC(=O)c4ccc(S(=O)(=O)N5CC(C)CC(C)C5)cc4)cc3)sc2c1` (configuration not stated) the same measures were greater than 1250 nM, 1320 nM and greater than 10 µM.
For `COc1ccc(CCNC(=O)c2cc(S(=O)(=O)N3CC(C)CC(C)C3)ccc2Sc2ccc(F)cc2)cc1OC` (configuration not stated) the same measures were 1260 nM, 1050 nM and greater than 10 µM.
Take `CC(=NOC(=O)c1ccco1)c1cnccn1`: the EC50 was greater than 1250 nM with Plasmodium falciparum [1] and 1250 nM in the series on Plasmodium falciparum [2]. This compound showed a CC50 in series [3] greater than 10 µM.
Turning to `CC1CC(C)CN(S(=O)(=O)c2ccc(C(=O)Nc3ccc(-c4nc5ccccc5o4)cc3)cc2)C1` (configuration not stated), the EC50 in the series with Plasmodium falciparum [1] is greater than 1250 nM; with Plasmodium falciparum [2], 1200 nM. For the same compound, in series [3], the CC50 was greater than 10 µM.
On to `Cc1nc(Oc2ccc3ccc(=O)oc3c2)c2c3c(sc2n1)CCCCC3`, for which the EC50 with Plasmodium falciparum [1] is greater than 1250 nM; with Plasmodium falciparum [2] it was 2300 nM. This compound gave a CC50 in series [3] greater than 10 µM.
On the same counts, the results for `COc1ccc(-n2nc(C(=O)NCC(=O)NCCCN3CCOCC3)c3ccccc3c2=O)cc1Cl` are greater than 1250 nM, 1260 nM and greater than 10 µM.
For `COC(=O)c1c(S(=O)(=O)N2CCN(C)CC2)sc2c1CCN(CCCc1ccccc1)C2` the same measures were 1260 nM, 1420 nM and greater than 10 µM.
On the same counts, the results for `COc1ccc(Cl)cc1-n1c(-c2cccnc2)n[nH]c1=S` are greater than 1250 nM, 1870 nM and greater than 10 µM.
As to `COCCNCc1cc2cc3c(cc2n(Cc2cccc(F)c2)c1=O)OCO3`, the EC50 in the series on Plasmodium falciparum [1] is 1270 nM; with Plasmodium falciparum [2], greater than 1250 nM. The compound also displayed a CC50 in series [3] greater than 10 µM.
On to `CCC(C)N(CCC(=O)N1CCN(Cc2ccccc2)CC1)C(=O)Nc1cccc(Cl)c1Cl` (configuration not stated), for which the concentration for a half-maximal effect (EC50) in the series on Plasmodium falciparum [1] was greater than 1060 nM; with Plasmodium falciparum [2] it was greater than 1560 nM. The compound further gave a CC50 in series [3] greater than 8.39 µM.
As to `O=C1c2ccccc2-c2nc3ccc(C(F)(F)F)cc3nc21`, the EC50 in the series on Plasmodium falciparum [1] was 1260 nM; with Plasmodium falciparum [2], 1140 nM. The 50% cytotoxic concentration (CC50) in series [3] is greater than 10 µM.
For `COc1ccc(C2CC(c3ccccc3Cl)n3ncnc3N2C(=O)C2CC2)cc1` (configuration not stated) the same measures were greater than 1280 nM, 1320 nM and greater than 10 µM.
For `O=C(COc1ccccc1)Nc1nccs1`, the results for the concentration for a half-maximal effect (EC50) in the series with Plasmodium falciparum [1] and in the series with Plasmodium falciparum [2] were 1260 nM and greater than 1250 nM, respectively. This compound also displayed a half-maximal cytotoxic concentration (CC50) in series [3] greater than 10 µM.
For `C/C(Cl)=C/Cc1c(C)nc2c(ccc3ccccc32)c1O`, the values for the EC50 with Plasmodium falciparum [1] and in the series on Plasmodium falciparum [2] were 1280 nM and 857 nM, respectively. In series [3], this compound showed a CC50 greater than 10 µM.
`CC(NC(=O)Cc1ccc(F)cc1)C(c1cccs1)N1CCOCC1` (configuration not stated): the figures for the EC50 in the series with Plasmodium falciparum [1] and in the series on Plasmodium falciparum [2] were greater than 1250 nM and 2010 nM, respectively. Besides, in series [3], the 50% cytotoxic concentration (CC50) is greater than 10 µM.
On to `CCOc1ccc(Nc2nc(N3CCCCC3)nc(N3CCCCC3)n2)cc1`, for which the EC50 is greater than 1250 nM with Plasmodium falciparum [1] and 1190 nM with Plasmodium falciparum [2]. The same compound registered a CC50 in series [3] greater than 10 µM.
With `CC1(C)CN=C(N2CCN(CC(O)COc3ccc(OCC(O)CN4CCN(C5=NCC(C)(C)S5)CC4)cc3)CC2)S1` (configuration not stated), the EC50 in the series with Plasmodium falciparum [1] was greater than 1250 nM; in the series on Plasmodium falciparum [2] it was 2420 nM. In series [3], this compound gave a cytotoxic concentration (CC50) greater than 10 µM.
